Laboratory results as given in ChEMBL document CHEMBL2074322, “Bidirectional transport of rhodamine 123 and Hoechst 33342, fluorescence probes of the binding sites on P-glycoprotein, across MDCK-MDR1 cell monolayers” (J Pharm Sci, 2004).

Columns and labels:
Assay type in all cases: functional, cell-based
Conditions in all cases: dog
[1] = biological target: T1, ATP-dependent translocase ABCB1 (Homo sapiens, UniProt P08183); test: TP_TRANSPORTER: transepithelial transport in MDR1-expressing MDCK cells
[2] = biological target: T1, ATP-dependent translocase ABCB1; test: TP_TRANSPORTER: transepithelial transport of Rhodamine 123 in the presence of Hoechst 33342 at a concentration of 5uM in MDR1-expressing MDCK cells
[3] = biological target: T1, ATP-dependent translocase ABCB1; test: TP_TRANSPORTER: transepithelial transport of Hoechst 33342 in the presence of Daunorubicin (Daunomycin) at a concentration of 80uM in MDR1-expressing MDCK cells
[4] = biological target: T1, ATP-dependent translocase ABCB1; test: TP_TRANSPORTER: transepithelial transport of Rhodamine 123 in the presence of Daunorubicin (Daunomycin) at a concentration of 80uM in MDR1-expressing MDCK cells

T1 sequence (P08183 whole entry): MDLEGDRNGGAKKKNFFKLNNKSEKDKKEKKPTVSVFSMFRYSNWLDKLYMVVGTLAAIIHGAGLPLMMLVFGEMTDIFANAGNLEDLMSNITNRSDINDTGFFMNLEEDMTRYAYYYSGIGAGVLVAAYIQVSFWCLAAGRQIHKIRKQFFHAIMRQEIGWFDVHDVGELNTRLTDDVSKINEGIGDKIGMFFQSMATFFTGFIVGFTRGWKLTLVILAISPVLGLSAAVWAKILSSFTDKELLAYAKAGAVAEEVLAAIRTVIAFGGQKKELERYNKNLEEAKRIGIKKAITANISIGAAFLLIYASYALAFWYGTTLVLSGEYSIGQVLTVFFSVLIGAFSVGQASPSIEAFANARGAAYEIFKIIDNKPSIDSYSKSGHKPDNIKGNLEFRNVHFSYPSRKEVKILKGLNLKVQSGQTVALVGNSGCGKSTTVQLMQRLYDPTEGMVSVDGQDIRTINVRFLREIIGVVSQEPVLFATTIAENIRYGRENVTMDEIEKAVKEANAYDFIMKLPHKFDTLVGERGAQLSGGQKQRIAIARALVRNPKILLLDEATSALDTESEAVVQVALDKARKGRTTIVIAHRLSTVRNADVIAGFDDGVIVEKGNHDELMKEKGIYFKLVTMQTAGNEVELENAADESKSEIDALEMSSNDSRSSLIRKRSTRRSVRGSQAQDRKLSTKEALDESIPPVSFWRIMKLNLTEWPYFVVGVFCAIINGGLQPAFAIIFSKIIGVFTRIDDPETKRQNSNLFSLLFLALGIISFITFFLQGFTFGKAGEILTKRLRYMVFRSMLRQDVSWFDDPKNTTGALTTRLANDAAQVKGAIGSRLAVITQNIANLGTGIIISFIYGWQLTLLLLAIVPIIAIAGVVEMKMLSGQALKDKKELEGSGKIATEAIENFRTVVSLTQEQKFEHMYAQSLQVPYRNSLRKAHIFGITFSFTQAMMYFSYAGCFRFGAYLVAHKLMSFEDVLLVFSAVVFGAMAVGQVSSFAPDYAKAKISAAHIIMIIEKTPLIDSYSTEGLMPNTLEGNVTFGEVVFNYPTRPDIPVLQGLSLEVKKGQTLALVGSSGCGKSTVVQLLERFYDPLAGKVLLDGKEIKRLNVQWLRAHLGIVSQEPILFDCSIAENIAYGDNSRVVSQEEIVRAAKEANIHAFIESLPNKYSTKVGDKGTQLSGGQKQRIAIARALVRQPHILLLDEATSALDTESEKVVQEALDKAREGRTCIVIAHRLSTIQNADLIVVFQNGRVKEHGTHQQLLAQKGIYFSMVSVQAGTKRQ

SMILES | Activity [1] | Activity [2] | Activity [3] | Activity [4]
CCOc1ccc(-c2nc3cc(-c4nc5cc(N6CCN(C)CC6)ccc5[nH]4)ccc3[nH]2)cc1 | substrate [+] | inhibitor [+] |  | 
COc1cccc2c1C(=O)c1c(O)c3c(c(O)c1C2=O)C[C@@](O)(C(C)=O)C[C@@H]3O[C@H]1C[C@H](N)[C@H](O)[C@H](C)O1 [DAUNORUBICIN] |  |  | inhibitor [+] | inhibitor [+]
COC(=O)c1ccccc1-c1c2ccc(=N)cc-2oc2cc(N)ccc12.Cl [RHODAMINE123] | substrate [+] |  |  | 
